# Values of other authors, collected in article PMC4457528, “Identification of Novel Small Molecule Inhibitors of Oncogenic RET Kinase” (PLoS ONE, 2015).
# Experiments:
# [1] = system: RET and its gate-keeper mutants; settings: cited from earlier work
# RET Y806C = system: RET Y806C; parameters: method as in PMID 15184865, PMID 19029224; settings: cited from earlier work
smiles,measurement,setting,value
Cc1ccc(C(=O)Nc2ccc(CN3CCN(C)CC3)c(C(F)(F)F)c2)cc1C#Cc1cnc2cccnn12 [ponatinib],inhibition of RET and its gate-keeper mutants,[1],potently inhibits
COc1cc2c(Nc3ccc(Br)cc3F)ncnc2cc1OCC1CCN(C)CC1 [vandetanib],fold increase of in vitro IC50 dose for RET by Y806C,RET Y806C,10 fold
